Data published in patent US20260224611A1, “POLYOL-B-POLYOXAZOLINE COPOLYMERS” (FREIE UNIVERSITÄT BERLIN, priority 2023, published 2026).

Columns and labels:
[1] = tested on: infected non-diabetic wounds; experiment: Wound healing animal study, infected non-diabetic wounds; assay type: in vivo; details: after 10 days, rats
Protocol: (§1) Based on these achievements, the efficiency of hPG-b-PEtO for diabetic wound healing in animals was investigated. For this purpose, an animal study was performed in two different groups of rats with infected non-diabetic wounds (FIG. 12A) and infected diabetic wounds (FIG. 12B). […] Saline buffer without additions was used as control. The ability of the copolymer to heal wounds was investigated by measuring the wound contraction at different treatment times.

infected diabetic wounds = experiment: Wound healing animal study, infected diabetic wounds; assay type: in vivo; details: after 10 days, rats
Protocol: as §1

SMILES: O=C1NC(=O)C(c2ccccc2)(c2ccccc2)N1 [phenytoin]
- wound closure area [1]: 90%
- wound closure area (infected diabetic wounds): 62%
